The assay has as its target T1, hFXR (Homo sapiens, UniProt Q96RI1).
T1 construct: expressed in transfected cells; host or cells: CV-1 cells
T1 sequence (Q96RI1 1-486): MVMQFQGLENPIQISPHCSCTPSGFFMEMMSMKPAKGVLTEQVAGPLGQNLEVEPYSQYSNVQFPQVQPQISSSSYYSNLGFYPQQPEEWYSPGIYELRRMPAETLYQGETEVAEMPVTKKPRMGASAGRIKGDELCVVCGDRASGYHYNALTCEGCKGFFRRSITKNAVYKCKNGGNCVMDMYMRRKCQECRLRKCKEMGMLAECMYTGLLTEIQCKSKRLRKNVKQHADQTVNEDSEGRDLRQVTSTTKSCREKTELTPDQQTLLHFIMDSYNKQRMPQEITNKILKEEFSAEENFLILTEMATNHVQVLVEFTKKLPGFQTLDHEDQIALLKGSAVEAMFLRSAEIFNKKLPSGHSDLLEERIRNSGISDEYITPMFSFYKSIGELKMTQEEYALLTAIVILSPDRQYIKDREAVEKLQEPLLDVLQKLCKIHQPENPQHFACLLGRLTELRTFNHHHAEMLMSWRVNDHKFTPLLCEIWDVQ
T1 sequence (P19793 1-462 partner): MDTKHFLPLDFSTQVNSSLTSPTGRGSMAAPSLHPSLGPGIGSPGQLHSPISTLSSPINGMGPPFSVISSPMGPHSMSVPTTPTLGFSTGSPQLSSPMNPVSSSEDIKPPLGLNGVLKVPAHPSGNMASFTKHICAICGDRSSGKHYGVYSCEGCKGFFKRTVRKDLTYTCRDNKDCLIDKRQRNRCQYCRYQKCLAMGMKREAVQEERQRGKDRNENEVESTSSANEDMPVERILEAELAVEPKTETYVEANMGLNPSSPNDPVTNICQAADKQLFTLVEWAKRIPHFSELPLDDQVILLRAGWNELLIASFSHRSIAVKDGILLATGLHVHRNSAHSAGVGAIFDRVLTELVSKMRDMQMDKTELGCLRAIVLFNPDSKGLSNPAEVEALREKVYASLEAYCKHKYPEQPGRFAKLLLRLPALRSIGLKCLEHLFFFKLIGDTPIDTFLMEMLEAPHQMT
The assay is described as follows: In Vitro FXR Assay (TK): TK-ECRE-luc reporter in transfected CV-1 cells. The class given is cell-based. Particulars: 18 hrs, luminescence, maximum efficacy of <25% of the Fexarmine control classified as '+'. An outline of the steps: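 Reporter transactivation by hFXR was measured in CV-1 cells carrying hRXR and a TK-ECRE-luc construct, with compound treatment for 18 h before lysis and luminescence detection.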

In patent US20220089575A1, “FARNESOID X RECEPTOR AGONISTS AND USES THEREOF” (Metacrine, Inc., priority 2017, published 2022) one finds EC50 data, which are given here for 17 compounds.

`COc1ccc([C@H]2CC[C@H](CN(c3cc(-c4cnn(C(C)C)c4)ccn3)C(=O)[C@H]3CC[C@H](OC(=O)N4CCC4)CC3)CC2)cc1C#N` [Compound 7.46, trans-4-(((trans-4-(3-Cyano-4-methoxyphenyl)cyclohexyl)methyl)(4-(1-isopropyl-1H-pyrazol-4-yl)pyridin-2-yl)carbamoyl)cyclohexyl azetidine-1-carboxylate]: the 50% effective concentration (EC50) was at most 250 nM.
For `COc1ccc([C@H]2CC[C@H](CN(c3cccc(-c4coc(C5CC5)n4)c3)C(=O)[C@H]3CC[C@H](NC(C)=O)CC3)CC2)cc1C` [Compound 26.19, trans-4-Acetamido-N-(3-(2-cyclopropyloxazol-4-yl)phenyl)-N-((trans-4-(4-methoxy-3-methylphenyl)cyclohexyl)methyl) cyclohexanecarboxamide] the value was at most 250 nM; for `CN(C)c1ccc(C23CCC(CN(c4cccc(-c5coc(C6CC6)n5)c4)C(=O)[C@H]4CC[C@H](OC(=O)NCCO)CC4)(CC2)CC3)cn1` [Compound 4.23, 4-((3-(2-Cyclopropyloxazol-4-yl)phenyl)((4-(6-(dimethylamino)pyridin-3-yl)bicyclo[2.2.2]octan-1-yl)methyl)carbamoyl)cyclohexyl trans-(2-hydroxyethyl)carbamate], at most 250 nM; for `COc1ccc([C@H]2CC[C@H](CN(c3cccc(-c4cnc(C5CC5)s4)c3)C(=O)[C@H]3CC[C@H](NC(=O)C4CNC4)CC3)CC2)cc1C` [Compound 27.06, N-(trans-4-((3-(2-Cyclopropylthiazol-5-yl)phenyl)((trans-4-(4-methoxy-3-methylphenyl)cyclohexyl)methyl)carbamoyl)cyclohexyl)azetidine-3-carboxamide], at least 1000 nM.
On to `COc1ccc([C@H]2CC[C@H](CN(c3cccc(-c4cnn(C(C)C)c4)c3)C(=O)[C@H]3CC[C@H](NC(=O)COC(C)=O)CC3)CC2)cc1C` [Compound 26.11, 2-((trans-4-((3-(1-Isopropyl-1H-pyrazol-4-yl)phenyl)((trans-4-(4-methoxy-3-methylphenyl)cyclohexyl)methyl)carbamoyl)cyclohexyl)amino)-2-oxoethyl acetate], for which the EC50 was at most 250 nM.
The compound `CNC(=O)O[C@H]1CC[C@H](C(=O)N(CC23CCC(c4ccc(OC)c(C)c4)(CC2)CC3)c2cccc(C#Cc3nccs3)c2)CC1` [Compound 2.05, 4-(((4-(4-Methoxy-3-methylphenyl)bicyclo[2.2.2]octan-1-yl)methyl)(3-(thiazol-2-ylethynyl)phenyl)carbamoyl)cyclohexyl trans-methylcarbamate] came in with an EC50 of at most 250 nM.
As to `COc1ccc([C@H]2CC[C@H](CN(c3cccc(-c4cnn(C(C)C)c4)c3)C(=O)[C@H]3CC[C@H](OC(=O)N4CCN(C)CC4)CC3)CC2)nc1C` [Compound 6.44, trans-4-((3-(1-Isopropyl-1H-pyrazol-4-yl)phenyl)((trans-4-(5-methoxy-6-methylpyridin-2-yl)cyclohexyl)methyl)carbamoyl)cyclohexyl 4-methylpiperazine-1-carboxylate], the EC50 was at most 250 nM.
`COc1ccc([C@H]2CC[C@H](CN(c3cc(-c4coc(C5CC5)n4)ccn3)C(=O)[C@H]3CC[C@H](CC(=O)O)CC3)CC2)cc1C#N` [Compound 21.12, 2-(trans-4-(((trans-4-(3-Cyano-4-methoxyphenyl)cyclohexyl)methyl)(4-(2-cyclopropyloxazol-4-yl)pyridin-2-yl)carbamoyl)cyclohexyl)acetic acid] showed an EC50 of at most 250 nM.
For `COc1ccc([C@H]2CC[C@H](CN(c3cc(-c4cnn(C5CC5)c4)ccn3)C(=O)[C@H]3CC[C@H](CC(=O)O)CC3)CC2)nc1C` [Compound 17.23, 2-(trans-4-((4-(1-Cyclopropyl-1H-pyrazol-4-yl)pyridin-2-yl)((trans-4-(5-methoxy-6-methylpyridin-2-yl)cyclohexyl)methyl)carbamoyl)cyclohexyl)acetic acid] the value was 250 to 1000 nM.
The same measure for `COc1ccc([C@H]2CC[C@H](CN(c3cccc(-c4cnn(C5CC5)c4)c3)C(=O)[C@H]3CC[C@H](NC(=O)C[S+](C)[O-])CC3)CC2)cc1C` (stereo partly drawn) [Compound 31.04, trans-N-(3-(1-Cyclopropyl-1H-pyrazol-4-yl)phenyl)-N-((trans-4-(4-methoxy-3-methylphenyl)cyclohexyl)methyl)-4-(2-(methylsulfinyl)acetamido) cyclohexanecarboxamide]: 250 to 1000 nM.
Compound `COc1ccc([C@H]2CC[C@H](CN(c3cccc(-c4cnc(C5CC5)s4)c3)C(=O)[C@H]3CC[C@H](CC(=O)O)CC3)CC2)nc1C` [Compound 20.03, 2-(trans-4-((3-(2-Cyclopropylthiazol-5-yl)phenyl)((trans-4-(5-methoxy-6-methylpyridin-2-yl)cyclohexyl)methyl)carbamoyl)cyclohexyl)acetic acid] yielded an EC50 of at most 250 nM.
The same measure for `COc1ccc([C@H]2CC[C@H](CN(c3cccc(-c4cnn(C5CC5)c4)c3)C(=O)[C@H]3CC[C@H](c4noc(=O)[nH]4)CC3)CC2)cc1C` [Compound 34, trans-N-(3-(1-Cyclopropyl-1H-pyrazol-4-yl)phenyl)-N-((trans-4-(4-methoxy-3-methylphenyl)cyclohexyl)methyl)-4-(5-oxo-4,5-dihydro-1,2,4-oxadiazol-3-yl)cyclohexanecarboxamide]: at most 250 nM.
`CNC(=O)O[C@]1(C)CC[C@H](C(=O)N(C[C@H]2CC[C@H](c3ccc(OC)c(C)c3)CC2)c2cccc(-c3cnn(C(C)C)c3)c2)CC1` [Compound 5.53, cis-4-((3-(1-Isopropyl-1H-pyrazol-4-yl)phenyl)(trans-4-(4-methoxy-3-methylphenyl)cyclohexyl)methyl)carbamoyl)-1-methylcyclohexyl methylcarbamate] returned an EC50 of at most 250 nM.
`COc1ccc([C@H]2CC[C@H](CN(c3cc(-c4cnn(C(C)C)c4)ccn3)C(=O)[C@H]3CC[C@H](OC(=O)N4CC(C(C)C)C4)CC3)CC2)nc1C` [Compound 7.57, trans-4-((4-(1-Isopropyl-1H-pyrazol-4-yl)pyridin-2-yl)((trans-4-(5-methoxy-6-methylpyridin-2-yl)cyclohexyl)methyl)carbamoyl)cyclohexyl 3-isopropylazetidine-1-carboxylate]: the EC50 was at most 250 nM.
In turn, `COc1ccc([C@H]2CC[C@H](CN(c3cc(-c4cnc(C5CC5)s4)ccn3)C(=O)[C@H]3CC[C@H](OC(=O)N4CC(O)C4)CC3)CC2)nc1C` [Compound 7.06, trans-4-((4-(2-Cyclopropylthiazol-5-yl)pyridin-2-yl)((trans-4-(5-methoxy-6-methylpyridin-2-yl)cyclohexyl)methyl)carbamoyl)cyclohexyl 3-hydroxyazetidine-1-carboxylate] returned an EC50 of at most 250 nM.
In the case of `COc1ccc([C@H]2CC[C@H](CN(c3cc(-c4cnc(C5CC5)s4)ccn3)C(=O)[C@H]3CC[C@H](CC(=O)O)CC3)CC2)nc1C` [Compound 20.04, 2-(trans-4-((4-(2-Cyclopropylthiazol-5-yl)pyridin-2-yl)((trans-4-(5-methoxy-6-methylpyridin-2-yl)cyclohexyl)methyl)carbamoyl)cyclohexyl)acetic acid], the 50% effective concentration (EC50) is at most 250 nM.
With `COc1ccc([C@H]2CC[C@H](CN(c3cc(-c4cnn(C5CC5)c4)ccn3)C(=O)[C@H]3CC[C@H](OC(=O)N4CC(O)C4)CC3)CC2)cc1C` [Compound 4.27, trans-4-((4-(1-Cyclopropyl-1H-pyrazol-4-yl)pyridin-2-yl)((trans-4-(4-methoxy-3-methylphenyl)cyclohexyl)methyl)carbamoyl)cyclohexyl 3-hydroxyazetidine-1-carboxylate], the EC50 is at most 250 nM.

The EC50 is the midpoint of the concentration-response curve.
